One data set concerns the target T1, enzyme ACAT-1 (Homo sapiens, UniProt P35610).
T1 construct: endogenous in cells; host or cells: HepG2
T1 sequence (P35610 1-550): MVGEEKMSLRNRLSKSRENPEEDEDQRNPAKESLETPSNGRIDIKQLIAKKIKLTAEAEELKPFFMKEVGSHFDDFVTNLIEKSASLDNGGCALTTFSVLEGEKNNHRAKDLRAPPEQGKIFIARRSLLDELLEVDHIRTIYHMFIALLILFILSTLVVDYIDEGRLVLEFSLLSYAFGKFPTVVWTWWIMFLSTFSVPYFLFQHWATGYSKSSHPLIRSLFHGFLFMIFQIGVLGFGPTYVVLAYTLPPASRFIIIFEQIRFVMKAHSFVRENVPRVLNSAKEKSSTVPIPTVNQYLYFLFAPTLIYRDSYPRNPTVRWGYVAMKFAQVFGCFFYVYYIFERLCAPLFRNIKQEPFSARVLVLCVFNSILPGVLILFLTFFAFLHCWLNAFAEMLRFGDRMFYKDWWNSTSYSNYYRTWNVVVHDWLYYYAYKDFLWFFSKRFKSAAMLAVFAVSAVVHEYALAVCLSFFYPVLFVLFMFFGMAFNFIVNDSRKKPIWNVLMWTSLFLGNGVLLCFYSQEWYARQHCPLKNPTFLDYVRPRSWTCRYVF
Kind of data set: HepG2 NBD-cholesterol fluorescence test for inhibitory activity towards the enzyme ACAT-1 (SOAT-1). It is filed as cell-based.
Conditions: not given
The protocol: The compounds (I) according to the invention, and also the pharmaceutically acceptable salts, solvates and/or hydrates thereof, have inhibitory properties on the enzyme SOAT-1. This inhibitory activity on the enzyme SOAT-1 is measured according to a HepG2 primary enzymatic test, as described in Example 15.
The compounds of formula (I) according to the invention were subjected to a test for evaluating their inhibitory activity towards the enzyme ACAT-1, inspired by the following publication: “Identification of ACAT1- and ACAT2-specific inhibitors using a novel, cell based fluorescence assay: individual ACAT uniqueness”, J. Lipid. Res. (2004) vol. 45, pages 378-386.
The principle of this test is based on the use of NBD-cholesterol, a cholesterol analogue whose fluorescence depends on its environment. When this molecule is in a polar environment, it is weakly fluorescent, whereas in a non-polar environment, it is strongly fluorescent. Free NBD-cholesterol becomes inserted in cell membranes and is weakly fluorescent in this polar environment. When NBD-cholesterol is esterified with ACAT, the NBD-cholesterol ester enters non-polar lipid droplets and is then strongly fluorescent.
The method below is applied: HepG2 cells are incubated in the presence of NBD-cholesterol (1 μg/ml) and of the test compound of formula (I) in black transparent-bottomed 96-well plates, at a rate of 30 000 cells per well. After incubation for 6 hours at 37° C. under 5% CO2, the medium is removed by turning upside-down and the cells are washed with twice 100 μl of PBS. After addition of 50 μl of lysis buffer (10 mM NaPO4, 1% Igepal), the plates are shaken for 5 minutes and the fluorescence is read (excitation at 490 nm, emission at 540 nm) on a Fusion machine (Perkin-Elmer).
`CC(=O)N1CCC2(CC1)C(=O)N(CC(=O)Nc1c(C(C)C)cccc1C(C)C)C(=O)N2c1ccc(C)cc1` [Compound 1, 2-(8-acetyl-2,4-dioxo-1-p-tolyl-1,3,8-triazaspiro[4.5]dec-3-yl)-N-(2,6-diisopropylphenyl)acetamide] displayed an IC50 of 1600 nM.
For `Cc1ccc(N2C(=O)N(CC(=O)Nc3c(C(C)C)cccc3C(C)C)C(=O)C23CCN(C(=O)OC(C)(C)C)CC3)cc1` [Compound 2, 3-[(2,6-diisopropylphenylcarbamoyl)methyl]-2,4-dioxo-1-p-tolyl-1,3,8-triazaspiro[4.5]decane-8-carboxylic acid tert-butyl ester], the midpoint of inhibition, the IC50, lay at 29 nM.
`Cc1ccc(N2C(=O)N(CC(=O)Nc3c(C(C)C)cccc3C(C)C)C(=O)C23CCN(C(=O)c2ccccc2)CC3)cc1` [Compound 3, 2-(8-benzoyl-2,4-dioxo-1-p-tolyl-1,3,8-triazaspiro[4.5]dec-3-yl)-N-(2,6-diisopropylphenyl)acetamide] registered an IC50 of 86 nM.
For `Cc1ccc(N2C(=O)N(CC(=O)Nc3c(C(C)C)cccc3C(C)C)C(=O)C23CCN(Cc2ccccc2)CC3)cc1` [Compound 4, 2-(8-benzyl-2,4-dioxo-1-p-tolyl-1,3,8-triazaspiro[4.5]dec-3-yl)-N-(2,6-diisopropylphenyl)acetamide], 5.8 nM corresponded to half-maximal inhibition (IC50).
Consider `Cc1ccc(N2C(=O)N(CC(=O)Nc3c(C(C)C)cccc3C(C)C)C(=O)C23CCN(C)CC3)cc1` [Compound 5, N-(2,6-diisopropylphenyl)-2-(8-methyl-2,4-dioxo-1-p-tolyl-1,3,8-triazaspiro[4.5]dec-3-yl)acetamide], for which the IC50 amounted to 20 nM.

Still in this data set, the particulars now being: HepG2 cells, NBD-cholesterol 1 μg/ml, incubation 6 hours at 37° C., fluorescence read (490/540 nm); read-out: IC50.
With `Cc1ccc(N2C(=O)N(CC(=O)Nc3c(C(C)C)cccc3C(C)C)C(=O)C23CCC(O)CC3)cc1` (stereo not drawn) [Compound 6, N-(2,6-Diisopropylphenyl)-2-(8-hydroxy-2,4-dioxo-1-p-tolyl-1,3-diazaspiro[4.5]dec-3-yl)acetamide], the IC50 was found to be 6.4 nM.
Consider `Cc1ccc(N2C(=O)N(CC(=O)Nc3c(C(C)C)cccc3C(C)C)C(=O)C23CCSCC3)cc1` [Compound 7, N-(2,6-diisopropylphenyl)-2-(2,4-dioxo-1-p-tolyl-8-thia-1,3-diazaspiro[4.5]dec-3-yl)acetamide], for which the IC50 turned out to be 1.8 nM.
Still for that read-out and setting: for `Cc1ccc(N2C(=O)N(CC(=O)Nc3c(C(C)C)cccc3C(C)C)C(=O)C23CCC(F)(F)CC3)cc1` [Compound 8, 2-(8,8-difluoro-2,4-dioxo-1-p-tolyl-1,3-diazaspiro[4.5]dec-3-yl)-N-(2,6-diisopropylphenyl)acetamide] the value was 1.5 nM; for `Cc1ccc(N2C(=O)N(CC(=O)Nc3c(C(C)C)cccc3C(C)C)C(=O)C23CCOCC3)cc1` [Compound 9, N-(2,6-diisopropylphenyl)-2-(2,4-dioxo-1-p-tolyl-8-oxa-1,3-diazaspiro[4.5]dec-3-yl)acetamide], 0.4 nM; for `CCc1cccc(CC)c1NC(=O)CN1C(=O)N(c2ccc(C)cc2)C2(CCOCC2)C1=O` [Compound 11, N-(2,6-diethylphenyl)-2-(2,4-dioxo-1-p-tolyl-8-oxa-1,3-diazaspiro[4.5]dec-3-yl)acetamide], 9.4 nM.

System in another data set: not given
Assay: not given
Conditions: not given
In turn, `CC(=O)N1CCC2(CC1)C(=O)N(CC(=O)Nc1c(C(C)C)cccc1C(C)C)C(=O)N2c1ccc(C)cc1` [Compound 1, 2-(8-acetyl-2,4-dioxo-1-p-tolyl-1,3,8-triazaspiro[4.5]dec-3-yl)-N-(2,6-diisopropylphenyl)acetamide] had a melting point of 136 to 138 °C.
As to `Cc1ccc(N2C(=O)N(CC(=O)Nc3c(C(C)C)cccc3C(C)C)C(=O)C23CCC(O)CC3)cc1` (stereo not drawn) [Compound 6, N-(2,6-Diisopropylphenyl)-2-(8-hydroxy-2,4-dioxo-1-p-tolyl-1,3-diazaspiro[4.5]dec-3-yl)acetamide], the melting point is 142 to 144 °C.

Broadly, the IC50 is the concentration needed to halve the response being measured. The term melting point denotes the temperature, or range, at which the solid turns liquid.

The record behind these values is patent US20120045500A1, “NOVEL DIOXO-IMIDAZOLIDINE DERIVATIVES, WHICH INHIBIT THE ENZYME SOAT-1, AND PHARMACEUTICAL AND COSMETIC COMPOSITIONS CONTAINING THEM” (GALDERMA RESEARCH & DEVELOPMENT, priority 2009, published 2012).
